The results in this text go back to paper PMC8950151, “Synthesis and Evaluation of the Antifungal and Toxicological Activity of Nitrofuran Derivatives” (Pharmaceutics, 2022).

Values after ≈ are worked out from the molar mass of the structure shown. Read-outs that look alike come from different tables or passages of the source. Some results are limits rather than exact numbers.

As usually defined, the IC50 is the midpoint of a concentration-inhibition curve. Low values mean greater potency in that assay, high ones weaker potency in that assay. In general, melting point refers to the temperature of the solid-liquid transition. The term viability denotes the share of living cells, or the viability signal relative to a control. A low value points to more harm to the cells.

Series [1] concerns Histoplasma capsulatum (G217-B/ATCC 26032). Description: microbe, parasite or virus in culture. It is filed as cell-based. The note with it: ATCC26032, 144 h.
Series [2] relates to C. krusei (ATCC 6258). Kind of series: Susceptibility test (CLSI M27-A3 broth microdilution, resazurin readout), MIC90. It is filed as cell-based, Candida krusei. The settings on record: Pichia kudriavzevii, ATCC6258, 24 h.
Series [3] relates to Cryptococcus neoformans (H99/ATCC 208821). Described as above. Type of series: cell-based. The settings on record: ATCC208821, 48 h.
The subject of series [4] is Trichophyton mentagrophytes (ATCC 11481). Description: Minimum fungicidal concentration (MFC). It is filed as cell-based. The note with it: Trichophyton mentagrophytes, ATCC11481; T. mentagrophytes.
For series [5] the test system is unchanged. Kind of series: Susceptibility assay for dermatophytes (CLSI M38-A2, resazurin), MIC90. The note with it: T. mentagrophytes, 35 °C. It is filed as cell-based. A general note: The colour change of resazurin is a common sign of viable cells or microbes.
For series [6], the system named is Paracoccidioides brasiliensis (Pb 18). Kind of series: microbe, parasite or virus in culture. It is filed as cell-based. The settings on record: Paracoccidioides brasiliensis.
Series [7] has as its system T. rubrum (ATCC 28289). Kind of series: Minimum fungicidal concentration (MFC). It is filed as cell-based, Trichophyton rubrum. The note with it: for MFC: Trichophyton rubrum, ATCC28289.
Series [8] has as its system Candida albicans (ATCC 90028). Kind of series: Minimum fungicidal concentration (MFC). It is filed as cell-based. The settings on record: ATCC90028, C. albicans.
Series [9] deals with Cryptococcus neoformans (H99/ATCC 208821). Description: Minimum fungicidal concentration (MFC). It is filed as cell-based. The note with it: ATCC208821, C. neoformans.
For series [10], the system named is Histoplasma capsulatum (G217-B/ATCC 26032). Description: microbe, parasite or virus in culture. Type of series: cell-based. The note with it: ATCC26032.
Series [11] has as its system C. glabrata (ATCC 90030). Description: Susceptibility test (CLSI M27-A3 broth microdilution, resazurin readout), MIC90. The note with it: Nakaseomyces glabratus, ATCC90030, 24 h, 37 °C. Type of series: cell-based, Candida glabrata.
The subject of series [12] is T. rubrum (ATCC 28289). Description: Susceptibility assay for dermatophytes (CLSI M38-A2, resazurin), MIC90. The settings on record: Trichophyton rubrum, ATCC28289, 96 h, 35 °C. Type of series: cell-based.
Another series in a line: in vitro. The settings on record: human.
Series [13] relates to C. krusei (ATCC 6258). Description: Minimum fungicidal concentration (MFC). Type of series: cell-based, Candida krusei. The settings on record: Pichia kudriavzevii, ATCC6258.
Series [14] concerns C. glabrata (ATCC 90030). Description: Minimum fungicidal concentration (MFC). It is filed as cell-based, Candida glabrata. The note with it: Nakaseomyces glabratus, ATCC90030; C. glabrata; read-out: MFC.
For series [15], the system named is Candida albicans (ATCC 90028). Description: Susceptibility test (CLSI M27-A3 broth microdilution, resazurin readout), MIC90. It is filed as cell-based. The note with it: ATCC90028, C. albicans, 24 h, 37 °C. In general terms: Broth dilution looks for growth in wells or tubes with falling amounts of substance.
The subject of series [16] is A549 (ATCC CCL-185) lung epithelial cell line. Kind of series: Cytotoxicity assay in monolayer by resazurin colorimetric method. Type of series: cell-based. The settings on record: Homo sapiens, A549 cells, 72 h.
A further series is described as follows: in vivo. The note with it: AU37 [glp-4 (bn2) I, sek-1 (km4) X], Caenorhabditis elegans, C. elegans larvae viability. On the procedure: The experiments were carried out with the mutant strain (AU37 [glp-4 (bn2) I; […]]). The strain was maintained on plates containing nematode growth medium (NGM) seeded with Escherichia coli OP50 at 16 °C. The stage of synchronization of young adults at stage L4 was performed for the toxicity test. About 20 larvae were transferred to each well of 96-well plates containing 100 μL of a medium composed of 60% of 50 mM NaCl; 40% BHI broth; 10 mg/mL cholesterol in ethanol; 200 mg/mL ampicillin and 90 mg/mL kanamycin. Then, 100 μL of dilutions of nitrofuran derivatives (showing the best selectivity index against the fungal species) were added. […] Plates were incubated at 25 °C for 24 h. Survival was assessed by the mobility and shape of the nematode (stick-shaped larvae were considered dead, while sinusoidal larvae were considered alive) under an inverted optical microscope on 40× objective lenses.

The mark [17] stands for this setting: Trichophyton mentagrophytes, ATCC11481, 96 h, read-out: MIC90.

For the molecule `O=C(/C=C/c1ccc([N+](=O)[O-])o1)c1ccc(Cl)cc1Cl` [Compound 16, (E)-1-(2,4-dichlorophenyl)-3-(5-nitrofuran-2-yl)prop-2-en-1-one], the melting point was 164 to 165 °C. The molecule also displayed an MIC90 in [1] of 62.5 µg/mL (≈ 200 µM). Also, the MIC90 against C. krusei (ATCC 6258) [2] is more than 250 µg/mL. Moreover, in series [3], the MIC90 was not below 250 µg/mL. The molecule also displayed an MFC in series [4] of 7.8 µg/mL (≈ 25 µM). For the same molecule, the MIC90 in [5] (setting [17]) turned out to be 7.8 µg/mL (≈ 25 µM). The molecule further returned an MFC in series [6] of 1.95 µg/mL (≈ 6.25 µM). In addition, the “fungistatic / fungicidal profile” value in the series on T. rubrum (ATCC 28289) [7] (MFC versus MIC90) was “fungistatic profile”. Further, in the series on T. rubrum (ATCC 28289) [7], the MFC came out at 31.2 µg/mL (≈ 100 µM). Further, the MFC in series [8] was more than 250 µg/mL. In addition, the MFC in [9] is not below 250 µg/mL. In series [10], this molecule came in with an MFC of 62.5 µg/mL (≈ 200 µM). The molecule also returned an MIC90 in the series with C. glabrata (ATCC 90030) [11] of more than 250 µg/mL. This molecule returned an MIC90 against T. rubrum (ATCC 28289) [12] of 7.8 µg/mL (≈ 25 µM). Besides, the IC50 in “in vitro” stood at 29.9 µg/mL (≈ 95.8 µM). In the series with C. krusei (ATCC 6258) [13], this molecule returned an MFC of more than 250 µg/mL. Also, the MFC in the series with C. glabrata (ATCC 90030) [14] was more than 250 µg/mL. Further, in series [15], the MIC90 worked out at 250 µg/mL (≈ 801 µM). Moreover, half-maximal inhibition in series [16] (IC50) required 35.6 µg/mL (≈ 114 µM).
`O=C(NCCCn1ccnc1)c1ccc([N+](=O)[O-])o1` [Compound 2, N-(3-(1H-imidazol-1-yl)propyl)-5-nitrofuran-2-carboxamide]: the melting point was in the range of 144 to 148 °C. In addition, the MIC90 in series [1] came to 250 µg/mL (≈ 946 µM). In the series with C. krusei (ATCC 6258) [2], this molecule registered an MIC90 of more than 250 µg/mL. This molecule returned an MIC90 in series [3] not below 250 µg/mL. Also, the MFC in [4] turned out to be 125 µg/mL (≈ 473 µM). Besides, the MIC90 in series [5] (setting [17]) turned out to be 125 µg/mL (≈ 473 µM). In series [6], the MFC came to 125 µg/mL (≈ 473 µM). The molecule further had an MFC in the series on T. rubrum (ATCC 28289) [7] of more than 250 µg/mL. This molecule also gave an MFC in [8] of more than 250 µg/mL. In [9], this molecule registered an MFC not below 250 µg/mL. In series [10], the MFC was more than 250 µg/mL. The molecule further displayed an MIC90 with C. glabrata (ATCC 90030) [11] of more than 250 µg/mL. The MIC90 in the series with T. rubrum (ATCC 28289) [12] was 125 µg/mL (≈ 473 µM). In addition, in “in vitro”, the IC50 was 90.8 µg/mL (≈ 343 µM). In addition, the MFC with C. krusei (ATCC 6258) [13] is more than 250 µg/mL. The MFC in the series with C. glabrata (ATCC 90030) [14] is more than 250 µg/mL. Besides, the MIC90 in series [15] was more than 250 µg/mL. In series [16], this molecule returned an IC50 of 49.1 µg/mL (≈ 186 µM).
Turning to `CS(=O)(=O)c1ccc(C(=O)/C=C/c2ccc([N+](=O)[O-])o2)cc1` [Compound 15, (E)-1-(4-(methylsulfonyl)phenyl)-3-(5-nitrofuran-2-yl)prop-2-en-1-one], the melting point was 197 to 200 °C (dec.). Besides, the MIC90 in series [1] was more than 250 µg/mL. Further, in the series with C. krusei (ATCC 6258) [2], the MIC90 was more than 250 µg/mL. The molecule also returned an MIC90 in [3] not below 250 µg/mL. In [4], this molecule came in with an MFC of 15.6 µg/mL (≈ 48.6 µM). In addition, the MIC90 in series [5] (setting [17]) came out at 7.8 µg/mL (≈ 24.3 µM). The same molecule displayed an MFC in series [6] of 7.81 µg/mL (≈ 24.3 µM). In addition, in the series on T. rubrum (ATCC 28289) [7], the MFC is 15.6 µg/mL (≈ 48.6 µM). The molecule also showed an MFC in [8] of more than 250 µg/mL. The MFC in series [9] is not below 250 µg/mL. Also, the MFC in series [10] was more than 250 µg/mL. Besides, in the series with C. glabrata (ATCC 90030) [11], the MIC90 is more than 250 µg/mL. The MIC90 with T. rubrum (ATCC 28289) [12] was found to be 7.8 µg/mL (≈ 24.3 µM). This molecule also returned an IC50 in the series “in vitro” of 11.5 µg/mL (≈ 35.8 µM). Also, the MFC in the series on C. krusei (ATCC 6258) [13] is more than 250 µg/mL. Further, in the series with C. glabrata (ATCC 90030) [14], the MFC is more than 250 µg/mL. This molecule yielded an MIC90 in series [15] of more than 250 µg/mL. This molecule also displayed an IC50 in series [16] of 34.2 µg/mL (≈ 107 µM).
As to `COc1ccc(C(=O)/C=C/c2ccc([N+](=O)[O-])o2)cc1` [Compound 12], the MIC90 in [1] was determined as 7.81 µg/mL (≈ 28.6 µM); against C. krusei (ATCC 6258) [2] it was 250 µg/mL (≈ 915 µM); in series [3], 62.5 µg/mL (≈ 229 µM); in series [5] (96 h), 1.95 µg/mL (≈ 7.14 µM); in series [5] (Trichophyton mentagrophytes, ATCC11481, 96 h), 0.98 µg/mL (≈ 3.59 µM); in the series with C. glabrata (ATCC 90030) [11], 250 µg/mL (≈ 915 µM). Moreover, the MIC90 is 0.98 µg/mL (≈ 3.59 µM) in the series with T. rubrum (ATCC 28289) [12] and 250 µg/mL (≈ 915 µM) in [15]. In addition, the MFC in series [4] is 1.95 µg/mL (≈ 7.14 µM); in series [6], 3.9 µg/mL (≈ 14.3 µM); with T. rubrum (ATCC 28289) [7], 1.95 µg/mL (≈ 7.14 µM); in [8], more than 250 µg/mL; in series [9] it was 125 µg/mL (≈ 457 µM); in series [10], 15.6 µg/mL (≈ 57.2 µM). Also, the MFC against C. krusei (ATCC 6258) [13] and in the series on C. glabrata (ATCC 90030) [14] was more than 250 µg/mL throughout. For the same molecule, in “in vivo”, the viability at 24 h, 250 µg/mL was more than 94%. For the same molecule, the results for the IC50 (in “in vitro”; in [16]) were 228 µg/mL (≈ 834 µM) and 250 µg/mL (≈ 915 µM), respectively.
